Measured values reported in patent publication US20240239861A1, “GLUCAGON-RECEPTOR SELECTIVE POLYPEPTIDES AND METHODS OF USE THEREOF” (i2O Therapeutics, Inc., priority 2016, published 2024).
Entries after “also recorded” stand apart in the source; their conditions may differ. Like-named read-outs stand apart in the source and are kept apart here. Where a SMILES comes first, the peptide text is derived from it. Bridges are numbered along the chain shown (N, C = ends).

Assays:
human GCGR = human GCGR (Homo sapiens, UniProt P47871); assay: Peptide-receptor mediated cAMP accumulation (LANCE Ultra cAMP) in CHO-K1 cells transfected with human GCGR; assay type: cell-based; conditions: for hGCGR pEC50 (cAMP mean (n = 3): 11 point curve starting at 1 nM): Table 3
human GLP-1R = human GLP-1R (Homo sapiens, UniProt P43220); assay: Peptide-receptor mediated cAMP accumulation (LANCE Ultra cAMP) in CHO-K1 cells transfected with human GLP-1R; assay type: cell-based
[1] = Solubility in water or saline at room temperature, visual inspection; assay type: physicochemical
Source text: Samples were visually inspected for clarity of the sample, any appearance of turbidity or haziness.

[2] = Stability in water or saline at 37° C. and room temperature, 30 days, LC/MS and HPLC purity; assay type: physicochemical
Source text: Samples were withdrawn at a regular interval for 30 days and analyzed by LC/MS and HPLC for determination of purity and mass of the degradation product.

[3] = Steady state plasma concentrations of glucagon analogs given subcutaneously by osmotic minipump; assay type: in vivo, rat
[4] = Clearance at intravenous infusion rate of 10 mcg/kg/hr
[5] = 3-hour intravenous infusion pharmacokinetics, peptide clearance (CL); conditions: male, rat, in vivo
[6] = Body weight change in DIO Long Evans rats after 13 days continuous dosing by osmotic pump; conditions: for weight loss compared to vehicle control after 13 days: DIO LE rats, single agent
[7] = Intravenous bolus injection pharmacokinetics, clearance (CL), cyclic peptide glucagon analogs; conditions: rat, in vivo; male Wistar Han rats, single iv bolus 0.1 mg/kg; read-out: IV Bolus Clearance Kidney (CL)
in vivo = conditions: male, rat
[8] = rat, in vivo, iv
[9] = hGLP1 pEC50 (cAMP mean (n = 3): 11 point curve starting at 1 nM, Table 3)
[10] = hGLP1 pEC50 (cAMP) mean (n = 9): 11 point curve starting at 500 uM, Table 2A
[11] = Table 3, room temperature, read-out: Solubility in water
[12] = Table 3, % printed only in cells of A1-A6

human GLP-1R, sequence (P43220 24-463): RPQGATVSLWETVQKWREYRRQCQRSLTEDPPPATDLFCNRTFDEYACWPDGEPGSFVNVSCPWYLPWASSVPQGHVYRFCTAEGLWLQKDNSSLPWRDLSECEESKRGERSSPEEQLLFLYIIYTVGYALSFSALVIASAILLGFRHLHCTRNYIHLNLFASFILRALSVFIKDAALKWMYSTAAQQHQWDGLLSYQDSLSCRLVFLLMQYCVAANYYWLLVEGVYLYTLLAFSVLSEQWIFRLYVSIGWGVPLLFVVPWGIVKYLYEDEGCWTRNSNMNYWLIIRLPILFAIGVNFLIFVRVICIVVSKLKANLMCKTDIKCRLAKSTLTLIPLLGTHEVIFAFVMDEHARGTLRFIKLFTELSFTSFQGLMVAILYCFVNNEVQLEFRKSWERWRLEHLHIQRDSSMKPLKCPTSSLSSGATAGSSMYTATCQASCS
human GCGR, sequence (P47871 26-477): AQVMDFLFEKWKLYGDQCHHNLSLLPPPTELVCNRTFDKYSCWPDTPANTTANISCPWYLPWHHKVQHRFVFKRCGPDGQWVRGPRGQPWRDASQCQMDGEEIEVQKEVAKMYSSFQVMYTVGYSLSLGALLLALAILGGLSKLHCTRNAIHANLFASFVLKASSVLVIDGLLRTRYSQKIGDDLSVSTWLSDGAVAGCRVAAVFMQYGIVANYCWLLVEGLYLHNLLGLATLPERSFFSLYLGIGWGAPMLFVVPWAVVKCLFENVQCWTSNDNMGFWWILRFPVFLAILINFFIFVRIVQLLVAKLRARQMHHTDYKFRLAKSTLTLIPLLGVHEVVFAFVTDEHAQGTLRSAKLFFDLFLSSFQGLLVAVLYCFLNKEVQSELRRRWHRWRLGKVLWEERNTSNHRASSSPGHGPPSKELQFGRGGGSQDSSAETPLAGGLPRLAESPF

| clearance [7] | Compound | EC50 (human GCGR) | hGCGR pEC50 (cAMP mean (n = 3): 11 point curve starting at 1 nM) (human GCGR) | EC50 (human GLP-1R; [9]) | EC50 (human GLP-1R; [10]) | solubility [1, 11] | Stability 1 mg/ml in water at 37 degC [2, 12] | CL (FIGURE 2B) | clearance [5] | other results |
| --- | --- | --- | --- | --- | --- | --- | --- | --- | --- | --- |
| – | CC(C)C[C@H](NC(=O)[C@H](Cc1ccc(O)cc1)NC(=O)[C@H](CCCCN)NC(=O)[C@H](CO)NC(=O)[C@H](Cc1ccc(O)cc1)NC(=O)[C@H](CC(=O)O)NC(=O)[C@H](CO)NC(=O)[C@@H](NC(=O)[C@H](Cc1ccccc1)NC(=O)[C@@H](NC(=O)CNC(=O)[C@H](Cc1c[nH]cn1)NC(=O)[C@H](CO)NC(=O)[C@@H](N)Cc1ccc(O)cc1)[C@@H](C)O)[C@@H](C)O)C(=O)N[C@@H](CC(=O)O)C(=O)NC(C)(C)C(=O)N[C@@H](CCCCN)C(=O)N[C@@H](CO)C(=O)N[C@@H](C)C(=O)N[C@@H](CCC(N)=O)C(=O)N[C@@H](CCC(=O)O)C(=O)N[C@@H](Cc1ccccc1)C(=O)N[C@H](C(=O)NC(C)(C)C(=O)N[C@@H](Cc1c[nH]c2ccccc12)C(=O)N[C@@H](CC(C)C)C(=O)N[C@@H](CCC(=O)O)C(=O)N[C@@H](CC(=O)O)C(=O)N[C@@H](CCC(=O)O)C(=O)N1CCC[C@H]1C(=O)N[C@@H](CO)C(=O)N[C@@H](CO)C(=O)NCC(=O)N[C@@H](C)C(=O)N1CCC[C@H]1C(=O)N1CCC[C@H]1C(=O)N1CCC[C@H]1C(=O)N[C@@H](CO)C(=O)O)C(C)C [Compound A2] | 2 pM | 11.7 | 3.98 µM | 3.98 µM | > 200 mg/mL | >84% | 12.3 ± 0.6 mL/min/kg | 10.8 mL/min/kg | activation profile at the human glucagon receptor (GCGR) (human GCGR; FIG. 1A): nearly equipotent on GCGR; activation profile at the human GLP-1 receptor (GLP-1R) (human GLP-1R; FIG. 1B): inactive on GLP-1R; mode of clearance ([3]; FIG. 6, steady state plasma concentration vs inulin/GFR): consistent with being via glomerular filtration; also recorded: cleared mainly by glomerular filtration; subcutaneous bioavailability ([3]; sc osmotic minipump, rat): high; clearance compared with exenatide and glucagon ([4]; FIG. 7): less than that of exenatide and glucagon; mode of clearance ([4]; FIG. 7, Table 5 values close to GFR): cleared from plasma via glomerular filtration; CL ([4]; Table 5, intravenous infusion rate 10 mcg/kg/hr, rat): 11.3 mL/min/kg; clearance ([4]; rat, in vivo, iv, 10 mcg/kg/hr, CL mL/min/kg, Table 5, intravenous infusion rate 10 mcg/kg/hr): 10.8 mL/min/kg; weight loss compared to vehicle control after 13 days ([6]; 0.01 mg/kg/day): 3.7%; weight loss compared to vehicle control after 13 days ([6]; 0.03 mg/kg/day): 3.9%; weight loss compared to vehicle control after 13 days ([6]; 0.1 mg/kg/day): 8.6%; weight loss compared to vehicle control after 13 days ([6]; 0.3 mg/kg/day): 23.7%; ED50 of weight loss ([6]; DIO rats, 13 days infusion, fits sharing vehicle response and common maximum (FIG. 9)): 271 µg/kg/day; common maximal weight loss response ([6]; over 13 days, fits constrained to share it (FIG. 9)): 27.2% |
| 67 ± 7.3 mL/min/kg | CC(C)C[C@H](NC(=O)[C@H](Cc1ccc(O)cc1)NC(=O)[C@H](CCCCN)NC(=O)[C@H](CO)NC(=O)[C@H](Cc1ccc(O)cc1)NC(=O)[C@H](CC(=O)O)NC(=O)[C@H](CO)NC(=O)[C@@H](NC(=O)[C@H](Cc1ccccc1)NC(=O)[C@@H](NC(=O)CNC(=O)[C@H](CCC(N)=O)NC(=O)[C@H](CO)NC(=O)[C@@H](N)Cc1ccc(O)cc1)[C@@H](C)O)[C@@H](C)O)C(=O)N[C@@H](CC(=O)O)C(=O)N[C@@H](CO)C(=O)N[C@H]1CCCCNC(=O)CC[C@@H](C(=O)N[C@@H](Cc2ccccc2)C(=O)N[C@H](C(=O)N[C@H]2CCCCNC(=O)CC[C@@H](C(=O)N[C@H](C(=O)O)[C@@H](C)O)NC(=O)[C@H](CCC(N)=O)NC(=O)[C@H](CC(C)C)NC(=O)[C@H](Cc3c[nH]c4ccccc34)NC2=O)C(C)C)NC(=O)[C@H](CCC(N)=O)NC(=O)[C@H](C)NC(=O)[C@H](CCCNC(=N)N)NC1=O [Compound A105] (H-YSQGTFTSDYSKYLDSKRAQEFVKWLQET-OH; lactam 17-21, 24-28) | – | – | – | – | – | – | – | – | – |
| 80.7 ± 15.4 mL/min/kg | CC(C)C[C@H](NC(=O)[C@H](Cc1ccc(O)cc1)NC(=O)[C@H](CCCCN)NC(=O)[C@H](CO)NC(=O)[C@H](Cc1ccc(O)cc1)NC(=O)[C@H](CC(=O)O)NC(=O)[C@H](CO)NC(=O)[C@@H](NC(=O)[C@H](Cc1ccccc1)NC(=O)[C@@H](NC(=O)CNC(=O)[C@H](CCC(N)=O)NC(=O)[C@H](CO)NC(=O)[C@@H](N)Cc1ccc(O)cc1)[C@@H](C)O)[C@@H](C)O)C(=O)N[C@@H](CC(=O)O)C(=O)N[C@@H](CO)C(=O)N[C@H]1CCCCNC(=O)CC[C@@H](C(=O)N[C@@H](Cc2ccccc2)C(=O)N[C@H](C(=O)N[C@H]2CCCCNC(=O)CC[C@@H](C(=O)N[C@H](C(=O)O)[C@@H](C)O)NC(=O)[C@H](CC(=O)O)NC(=O)[C@H](CC(C)C)NC(=O)[C@H](Cc3c[nH]c4ccccc34)NC2=O)C(C)C)NC(=O)[C@H](CCC(N)=O)NC(=O)[C@H](C)NC(=O)[C@H](CCCNC(=N)N)NC1=O [Compound A104] (H-YSQGTFTSDYSKYLDSKRAQEFVKWLDET-OH; lactam 17-21, 24-28) | – | – | – | – | – | – | – | – | – |
| – | CC[C@H](C)[C@H](NC(=O)[C@@H](NC(=O)[C@H](Cc1ccccc1)NC(=O)[C@H](CCC(=O)O)NC(=O)[C@H](CCC(N)=O)NC(=O)[C@H](C)NC(=O)[C@H](CCCNC(=N)N)NC(=O)[C@H](CCCCN)NC(=O)C(C)(C)NC(=O)[C@H](CC(=O)O)NC(=O)[C@H](CC(C)C)NC(=O)[C@H](Cc1ccc(O)cc1)NC(=O)[C@H](CCCCN)NC(=O)[C@H](CO)NC(=O)[C@H](Cc1ccc(O)cc1)NC(=O)[C@H](CC(=O)O)NC(=O)[C@H](CO)NC(=O)[C@@H](NC(=O)[C@H](Cc1ccccc1)NC(=O)[C@@H](NC(=O)CNC(=O)[C@H](Cc1c[nH]cn1)NC(=O)[C@H](CO)NC(=O)[C@@H](N)Cc1ccc(O)cc1)[C@@H](C)O)[C@@H](C)O)C(C)C)C(=O)N[C@@H](Cc1c[nH]c2ccccc12)C(=O)N[C@@H](CC(C)C)C(=O)N[C@@H](CCC(=O)O)C(=O)N[C@@H](CC(=O)O)C(=O)N[C@@H](CCC(=O)O)C(=O)N1CCC[C@H]1C(=O)N[C@@H](CO)C(=O)N[C@@H](CO)C(=O)NCC(=O)N[C@@H](C)C(=O)N1CCC[C@H]1C(=O)N1CCC[C@H]1C(=O)N1CCC[C@H]1C(=O)N[C@@H](CO)C(=O)O [Compound A4] | 1.58 pM | 11.8 | > 10 µM | > 10 µM | > 200 mg/mL | >81% | 15.0 ± 0.7 mL/min/kg | 12.6 mL/min/kg | – |
| – | CC(C)C[C@H](NC(=O)[C@H](Cc1ccc(O)cc1)NC(=O)[C@H](CCCCN)NC(=O)[C@H](CO)NC(=O)[C@H](Cc1ccc(O)cc1)NC(=O)[C@H](CC(=O)O)NC(=O)[C@H](CO)NC(=O)[C@@H](NC(=O)[C@H](Cc1ccccc1)NC(=O)[C@@H](NC(=O)CNC(=O)[C@H](Cc1c[nH]cn1)NC(=O)[C@H](CO)NC(=O)[C@@H](N)Cc1ccc(O)cc1)[C@@H](C)O)[C@@H](C)O)C(=O)N[C@@H](CC(=O)O)C(=O)N[C@@H](CO)C(=O)N[C@@H](C)C(=O)N[C@@H](CCCNC(=N)N)C(=O)N[C@@H](C)C(=O)N[C@@H](CCC(N)=O)C(=O)N[C@@H](CCC(=O)O)C(=O)N[C@@H](Cc1ccccc1)C(=O)N[C@H](C(=O)N[C@@H](CCCCN)C(=O)N[C@@H](Cc1c[nH]c2ccccc12)C(=O)N[C@@H](CC(C)C)C(=O)N[C@@H](CCC(=O)O)C(=O)N[C@@H](CC(=O)O)C(=O)N[C@@H](CCC(=O)O)C(=O)N1CCC[C@H]1C(=O)N[C@@H](CO)C(=O)N[C@@H](CO)C(=O)NCC(=O)N[C@@H](C)C(=O)N1CCC[C@H]1C(=O)N1CCC[C@H]1C(=O)N1CCC[C@H]1C(=O)N[C@@H](CO)C(N)=O)C(C)C [Compound A5] (H-YSHGTFTSDYSKYLDSARAQEFVKWLEDEPSSGAPPPS-NH2; N-terminus assumed) | – | 11.8 | 1.58 µM | 1.58 µM | – | – | 22.6 ± 0.6 mL/min/kg | – | EC50 (human GCGR; Table 2A): 1.58 pM; solubility ([1]; Solubility in water mg/ml): > 200 mg/mL; Stability 1 mg/ml in water at 37 degC [2]: >94%; clearance (in vivo): 11.7 mL/min/kg |
| – | GLP-1: glucagon-like peptide-1; infused as GLP-1-(7-36)amide in Example 13 | – | – | – | – | – | – | – | – | Plasma clearance rates [8]: 34±4 to 38±3 |
